Results: patent US20250152585A1, “PHARMACEUTICAL COMPOUND” (Duke Street Bio Limited, priority 2022, published 2025)
Read-outs that look alike come from different tables or passages of the source.

Tests used:
[1] = target: T1, N-terminally FLAG-tagged PARP2 (amino acids 1-583) (Homo sapiens, UniProt Q9UGN5); assay: PARP2 probe displacement HTRF assay; type: binding; details: binned Kd
T1 construct: N-terminally FLAG-tagged PARP2 (amino acids 1-583)
Protocol: Data analysis was performed identical as for PARP1.

[2] = target: T2, full length N-terminally FLAG-tagged PARP1 (Homo sapiens, UniProt P09874); assay: PARP1 biochemical DELFIA assay (auto-PARylation); parameters: recombinant full length human N-terminally FLAG-tagged PARP1
[3] = target: T2, full length N-terminally FLAG-tagged PARP1; assay: PARP1 probe displacement HTRF assay; details: for Selectivity: PARP1 over PARP2, ratio Kd (PARP2)/Kd (PARP1); for Kd: binned Kd
[4] = binned IC50, PARP1 biochemical DELFIA assay
[5] = read-out: PARP1 HTRF, PARP1 probe displacement HTRF
[6] = PARP1 HTRF, PARP1 probe displacement HTRF
[7] = binned IC50, biochemical auto-PARylation assay
[8] = read-out: PARP1 HTRF, probe displacement HTRF

T2 sequence (P09874 whole entry): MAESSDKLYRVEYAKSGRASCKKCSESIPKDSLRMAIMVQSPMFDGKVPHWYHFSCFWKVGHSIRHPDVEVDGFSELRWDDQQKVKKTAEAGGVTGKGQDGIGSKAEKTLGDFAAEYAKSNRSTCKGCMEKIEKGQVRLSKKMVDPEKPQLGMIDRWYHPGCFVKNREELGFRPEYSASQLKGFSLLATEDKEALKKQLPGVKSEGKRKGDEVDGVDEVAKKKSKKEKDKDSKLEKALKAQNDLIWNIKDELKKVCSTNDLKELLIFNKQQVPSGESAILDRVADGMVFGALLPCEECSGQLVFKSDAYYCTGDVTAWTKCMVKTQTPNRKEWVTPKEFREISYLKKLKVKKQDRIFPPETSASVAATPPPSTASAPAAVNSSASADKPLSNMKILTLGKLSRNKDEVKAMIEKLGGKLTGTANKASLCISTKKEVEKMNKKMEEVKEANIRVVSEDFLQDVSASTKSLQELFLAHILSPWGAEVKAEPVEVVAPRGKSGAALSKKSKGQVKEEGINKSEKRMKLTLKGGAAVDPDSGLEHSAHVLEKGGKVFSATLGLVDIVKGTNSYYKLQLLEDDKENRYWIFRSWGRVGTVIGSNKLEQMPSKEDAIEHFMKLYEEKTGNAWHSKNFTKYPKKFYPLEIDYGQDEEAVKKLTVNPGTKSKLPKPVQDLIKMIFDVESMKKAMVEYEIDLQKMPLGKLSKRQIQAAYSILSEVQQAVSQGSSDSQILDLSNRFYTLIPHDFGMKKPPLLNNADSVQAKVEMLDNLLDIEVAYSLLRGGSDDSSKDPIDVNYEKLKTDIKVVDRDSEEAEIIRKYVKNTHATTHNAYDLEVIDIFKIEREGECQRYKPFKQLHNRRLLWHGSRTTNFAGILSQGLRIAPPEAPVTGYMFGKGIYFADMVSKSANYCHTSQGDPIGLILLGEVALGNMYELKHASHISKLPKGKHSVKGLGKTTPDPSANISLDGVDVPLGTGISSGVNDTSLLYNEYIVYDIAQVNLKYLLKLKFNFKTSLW
T1 sequence (Q9UGN5 whole entry, the tested form may be a part): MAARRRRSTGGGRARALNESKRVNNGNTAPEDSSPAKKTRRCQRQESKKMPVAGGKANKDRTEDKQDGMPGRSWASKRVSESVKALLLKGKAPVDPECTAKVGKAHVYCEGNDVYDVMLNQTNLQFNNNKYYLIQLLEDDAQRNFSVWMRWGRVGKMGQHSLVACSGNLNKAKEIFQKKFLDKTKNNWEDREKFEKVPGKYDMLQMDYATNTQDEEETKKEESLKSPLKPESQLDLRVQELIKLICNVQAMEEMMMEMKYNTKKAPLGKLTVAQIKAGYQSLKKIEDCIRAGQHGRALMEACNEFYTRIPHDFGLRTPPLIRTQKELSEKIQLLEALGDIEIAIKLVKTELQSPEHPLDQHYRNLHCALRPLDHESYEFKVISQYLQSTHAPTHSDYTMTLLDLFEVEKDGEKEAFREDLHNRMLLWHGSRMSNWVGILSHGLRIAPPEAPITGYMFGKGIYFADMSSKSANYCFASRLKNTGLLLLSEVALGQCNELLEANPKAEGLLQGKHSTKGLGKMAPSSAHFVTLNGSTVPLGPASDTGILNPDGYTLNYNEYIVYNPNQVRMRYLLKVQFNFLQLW

| SMILES | Kd ([1]; PARP2 probe displacement HTRF) [nM] | IC50 [2, 4] [nM] | Kd [3, 5] [nM] | Kd [3, 6] [nM] | Kd ([1]; probe displacement HTRF) [nM] | IC50 [2, 7] [nM] | Kd [3, 8] [nM] | Selectivity ([3]; probe displacement HTRF) |
| --- | --- | --- | --- | --- | --- | --- | --- | --- |
| CNC(=O)c1ccc(N2CCC(N3CCC(c4cc5cccc(F)c5c(=O)[nH]4)C3)CC2)c(C)n1 (single isomer, unassigned) [Compound 206b] | 1000 to 10000 | < 10 | < 10 |  |  |  |  | +++ (+++ indicate a value of at least 100) |
| CNC(=O)c1ccc(N2CCC(N3CCC(c4ccc(COC)c(=O)[nH]4)C3)CC2)cn1 (single isomer, unassigned) [Compound 207a] | > 10000 | < 10 | < 10 |  |  |  |  | +++ (+++ indicate a value of at least 100) |
| CNC(=O)c1ccc(N2CCC(N3CCC(c4ccc(COC)c(=O)[nH]4)C3)CC2)cn1 (single isomer, unassigned) [Compound 207b] | > 10000 | 100 to 1000 | 100 to 1000 |  |  |  |  | − (− indicates a value of less than 10) |
| CNC(=O)c1ccc(N2CCC(N3CCC(c4nc5c(c(=O)[nH]4)CCCN5C)C3)CC2)cn1 (single isomer, unassigned) [Compound 208a, N-methyl-5-(4-(3-(8-methyl-4-oxo-3,4,5,6,7,8-hexahydropyrido[2,3-d]pyrimidin-2-yl)pyrrolidin-1-yl)piperidin-1-yl)picolinamide] | 100 to 1000 | < 10 |  | 10 to 100 |  |  |  | + (+ indicates a value of 10 to less than 50) |
| CNC(=O)c1ccc(N2CCC(N3CCC(c4nc5c(c(=O)[nH]4)CCCN5C)C3)CC2)cn1 (single isomer, unassigned) [Compound 208b, N-methyl-5-(4-(3-(8-methyl-4-oxo-3,4,5,6,7,8-hexahydropyrido[2,3-d]pyrimidin-2-yl)pyrrolidin-1-yl)piperidin-1-yl)picolinamide] | 10 to 100 | < 10 |  | < 10 |  |  |  | ++ (++ indicates a value of 50 to less than 100) |
| CNC(=O)c1ccc(N2CCC(N3CCC(c4cc5cccc(F)c5c(=O)[nH]4)C3)CC2)nn1 (single isomer, unassigned) [Compound 209a] | 100 to 1000 | < 10 | < 10 |  |  |  |  | +++ (+++ indicate a value of at least 100) |
| CNC(=O)c1ccc(N2CCC(N3CCC(c4cc5cccc(F)c5c(=O)[nH]4)C3)CC2)nn1 (single isomer, unassigned) [Compound 209b] | 1000 to 10000 | 10 to 100 | 10 to 100 |  |  |  |  | +++ (+++ indicate a value of at least 100) |
| CCc1ccc(C2CCN(C3CCN(c4ccc(C(=O)NC)nn4)CC3)C2)[nH]c1=O (single isomer, unassigned) [Compound 210b] | 1000 to 10000 | < 10 | < 10 |  |  |  |  | +++ (+++ indicate a value of at least 100) |
| CNC(=O)c1ccc(N2CCC(N3CCCC(c4ncc(CC(F)(F)F)c(=O)[nH]4)C3)CC2)cn1 (single isomer, unassigned) [Compound 212a] | > 10000 | 100 to 1000 | 100 to 1000 |  |  |  |  | + (+ indicates a value of 10 to less than 50) |
| CNC(=O)c1ccc(N2CCC(N3CCCC(c4ncc(CC(F)(F)F)c(=O)[nH]4)C3)CC2)cn1 (single isomer, unassigned) [Compound 212b] | > 10000 | > 10000 | > 10000 |  |  |  |  | − (− indicates a value of less than 10) |
| CNC(=O)c1ccc(N2CCC(N3CCC(c4ccc(CC5CC5)c(=O)[nH]4)C3)CC2)cn1 (single isomer, unassigned) [Compound 213a] | > 10000 | 10 to 100 | 10 to 100 |  |  |  |  | +++ (+++ indicate a value of at least 100) |
| CNC(=O)c1ccc(N2CCC(N3CCC(c4ccc(CC5CC5)c(=O)[nH]4)C3)CC2)cn1 (single isomer, unassigned) [Compound 213b] | 100 to 1000 | < 10 | < 10 |  |  |  |  | +++ (+++ indicate a value of at least 100) |
| CNC(=O)c1ccc(N2CCC(N3CCC(c4nc5c(c(=O)[nH]4)CCCN5)C3)CC2)cn1 (single isomer, unassigned) [Compound 214a] | 100 to 1000 | 10 to 100 | 10 to 100 |  |  |  |  | ++ (++ indicates a value of 50 to less than 100) |
| CNC(=O)c1ccc(N2CCC(N3CCC(c4nc5c(c(=O)[nH]4)CCCN5)C3)CC2)cn1 (single isomer, unassigned) [Compound 214b] | 100 to 1000 | < 10 | < 10 |  |  |  |  | +++ (+++ indicate a value of at least 100) |
| CCc1ccc(C2CCN(C3CCN(c4cnc(C(=O)NC)cc4C)CC3)C2)[nH]c1=O (single isomer, unassigned) [Compound 217a] | > 10000 | 100 to 1000 | 100 to 1000 |  |  |  |  | − (− indicates a value of less than 10) |
| CCc1ccc(C2CCN(C3CCN(c4cnc(C(=O)NC)cc4C)CC3)C2)[nH]c1=O (single isomer, unassigned) [Compound 217b] | 100 to 1000 | < 10 | < 10 |  |  |  |  | ++ (++ indicates a value of 50 to less than 100) |
| CNC(=O)c1ccc(N2CCC(N3CCC(c4cc5ncccc5c(=O)[nH]4)C3)CC2)cn1 (single isomer, unassigned) [Compound 218a] | > 10000 | 10 to 100 | 10 to 100 |  |  |  |  | +++ (+++ indicate a value of at least 100) |

More lines, main results first:

| Kd ([1]; PARP2 probe displacement HTRF) [nM] | IC50 [2, 4] [nM] | Kd [3, 5] [nM] | Kd [3, 6] [nM] | Kd ([1]; probe displacement HTRF) [nM] | IC50 [2, 7] [nM] | Kd [3, 8] [nM] | SMILES | Selectivity ([3]; probe displacement HTRF) |
| --- | --- | --- | --- | --- | --- | --- | --- | --- |
| 100 to 1000 | < 10 | < 10 |  |  |  |  | CNC(=O)c1ccc(N2CCC(N3CCC(c4cc5ncccc5c(=O)[nH]4)C3)CC2)cn1 (single isomer, unassigned) [Compound 218b] | +++ (+++ indicate a value of at least 100) |
| 10 to 100 | < 10 | < 10 |  |  |  |  | CNC(=O)c1ccc(N2CCC(N3CCC(c4[nH]c(=O)c5ccccc5c4Cl)C3)CC2)cn1 (single isomer, unassigned) [Compound 219a] | ++ (++ indicates a value of 50 to less than 100) |
|  |  |  |  | 100 to 1000 | < 10 | < 10 | CNC(=O)c1ccc(N2CCC(N3CCC(c4[nH]c(=O)c5ccccc5c4Cl)C3)CC2)cn1 (single isomer, unassigned) [Compound 219b] | +++ (+++ indicate a value of at least 100) |
|  |  |  |  | 1000 to 10000 | 100 to 1000 | 100 to 1000 | CC(=O)Nc1ccc(N2CCC(N3CCC(c4nc5ccccc5c(=O)[nH]4)C3)CC2)cn1 (single isomer, unassigned) [Compound 220a] | − (− indicates a value of less than 10) |
|  |  |  |  | 1000 to 10000 | 10 to 100 | 10 to 100 | CC(=O)Nc1ccc(N2CCC(N3CCC(c4nc5ccccc5c(=O)[nH]4)C3)CC2)cn1 (single isomer, unassigned) [Compound 220b] | + (+ indicates a value of 10 to less than 50) |
|  |  |  |  | 100 to 1000 | 10 to 100 | 10 to 100 | CNC(=O)c1ccc(N2CCC(N3CCC(c4nc5sc(C)c(C)c5c(=O)[nH]4)C3)CC2)cn1 (single isomer, unassigned) [Compound 221a] | + (+ indicates a value of 10 to less than 50) |
|  |  |  |  | 10 to 100 | < 10 | < 10 | CNC(=O)c1ccc(N2CCC(N3CCC(c4nc5sc(C)c(C)c5c(=O)[nH]4)C3)CC2)cn1 (single isomer, unassigned) [Compound 221b] | ++ (++ indicates a value of 50 to less than 100) |
|  |  |  |  | 100 to 1000 | < 10 | < 10 | CNC(=O)c1ccc(N2CCC(N3CCC(c4nc5ccc(F)c(F)c5c(=O)[nH]4)C3)CC2)cn1 (single isomer, unassigned) [Compound 222a] | + (+ indicates a value of 10 to less than 50) |
|  |  |  |  | 10 to 100 | < 10 | < 10 | CNC(=O)c1ccc(N2CCC(N3CCC(c4nc5ccc(F)c(F)c5c(=O)[nH]4)C3)CC2)cn1 (single isomer, unassigned) [Compound 222b] | +++ (+++ indicate a value of at least 100) |
